Assay results reported in ChEMBL document CHEMBL1201862, “PubChem BioAssay data set” (2004).
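Briefly, cells in 96-well plates were exposed to five compound concentrations for 48 h, and endpoints were estimated by linear interpolation. Abbreviation: GI50, concentration required for 50% inhibition of growth.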 Active and inactive are the calls of the source. No stated cut-off is given here; in the data, active = GI50 up to about 1.1 µM and inactive = higher.

Columns and labels:
Assay in all cases: NCI tumour cell line growth inhibition, 48 h
[1] = system: SK-OV-3
[2] = system: HOP-92
[3] = system: HCT-15
[4] = system: OVCAR-8
[5] = system: KM12
[6] = system: HOP-62
[7] = system: NCI-H226
[8] = system: 786-0
[9] = system: OVCAR-5
[10] = system: SK-MEL-2
[11] = system: SNB-19
[12] = system: SNB-75
[13] = system: EKVX
[14] = system: SK-MEL-5
[15] = system: NCI-H23
[16] = system: NCI-H522
[17] = system: DLD-1
[18] = system: CAKI-1
[19] = system: KM-20L2
[20] = system: HT-29
[21] = system: HOP-18
[22] = system: SF-268
[23] = system: M14
[24] = system: UO-31
[25] = system: LOX IMVI
[26] = system: SK-MEL-28
[27] = system: U-251
[28] = system: NCI-H460
[29] = system: IGROV-1
[30] = system: A549
[31] = system: DMS-114
[32] = system: K562
[33] = system: UACC-62
[34] = system: UACC-257
[35] = system: RXF 631
[36] = system: OVCAR-4
[37] = system: COLO 205
[38] = system: HCT-116
[39] = system: SNB-78
[40] = system: HCC 2998
[41] = system: Malme-3M
[42] = system: OVCAR-3
[43] = system: A498
[44] = system: MOLT-4
[45] = system: CCRF-CEM
[46] = system: XF498
[47] = system: SF-295
[48] = system: SN12C
[49] = system: ACHN
[50] = system: DMS-273
[51] = system: LXFL 529
[52] = system: HL-60
[53] = system: SW-620
[54] = system: RPMI-8226
[55] = system: TK-10
[56] = system: M19-MEL
[57] = system: RXF 393
[58] = system: SF-539
[59] = system: SR

## COC(=O)[C@]12CC=C3O[C@@H]4OC5(CCCCC5)O[C@@H]4C3[C@@H]1C(=O)CCC2=O (stereo partly specified)
[1]
  GI50: > 100 µM (inactive)
[2]
  GI50: > 100 µM (inactive)
[3]
  GI50: > 100 µM
[4]
  GI50: > 100 µM (inactive)
[5]
  GI50: > 100 µM (inactive)
[6]
  GI50: > 100 µM (inactive)
[7]
  GI50: > 100 µM (inactive)
[8]
  GI50: > 100 µM (inactive)
[9]
  GI50: > 100 µM (inactive)
[10]
  GI50: > 100 µM (inactive)
[11]
  GI50: > 100 µM (inactive)
[12]
  GI50: > 100 µM (inactive)
[13]
  GI50: > 100 µM (inactive)
[14]
  GI50: > 100 µM (inactive)
[15]
  GI50: > 100 µM (inactive)
[16]
  GI50: 83.4 µM (inactive)
[17]
  GI50: > 100 µM (inactive)
[18]
  GI50: > 100 µM (inactive)
[19]
  GI50: > 100 µM (inactive)
[20]
  GI50: > 100 µM (inactive)
[21]
  GI50: > 100 µM (inactive)
[22]
  GI50: > 100 µM (inactive)
[23]
  GI50: > 100 µM (inactive)
[24]
  GI50: > 100 µM (inactive)
[25]
  GI50: > 100 µM (inactive)
[26]
  GI50: > 100 µM (inactive)
[27]
  GI50: > 100 µM (inactive)
[28]
  GI50: > 100 µM (inactive)
[29]
  GI50: > 100 µM (inactive)
[30]
  GI50: > 100 µM (inactive)
[31]
  GI50: > 100 µM (inactive)
[32]
  GI50: > 100 µM (inactive)
[33]
  GI50: > 100 µM (inactive)
[34]
  GI50: > 100 µM (inactive)
[35]
  GI50: > 100 µM (inactive)
[36]
  GI50: > 100 µM (inactive)
[37]
  GI50: > 100 µM (inactive)
[38]
  GI50: > 100 µM (inactive)
[39]
  GI50: > 100 µM (inactive)
[40]
  GI50: > 100 µM (inactive)
[41]
  GI50: > 100 µM (inactive)
[42]
  GI50: 36.5 µM (inactive)
[43]
  GI50: > 100 µM (inactive)
[44]
  GI50: > 100 µM (inactive)
[45]
  GI50: > 100 µM (inactive)
[46]
  GI50: > 100 µM (inactive)
[47]
  GI50: > 100 µM (inactive)
[48]
  GI50: > 100 µM (inactive)
[49]
  GI50: > 100 µM (inactive)
[50]
  GI50: > 100 µM (inactive)
[51]
  GI50: > 100 µM (inactive)
[52]
  GI50: > 100 µM (inactive)
[53]
  GI50: > 100 µM (inactive)
[54]
  GI50: > 100 µM (inactive)

## O=C(NCc1ccccc1)C1C(=O)C(=O)N(Cc2ccccc2)C1=O (stereo unspecified)
[1]
  GI50: > 100 µM (inactive)
[2]
  GI50: > 100 µM (inactive)
[3]
  GI50: > 100 µM
[4]
  GI50: > 100 µM (inactive)
[5]
  GI50: > 100 µM (inactive)
[6]
  GI50: > 100 µM (inactive)
[7]
  GI50: > 100 µM (inactive)
[8]
  GI50: > 100 µM (inactive)
[9]
  GI50: > 100 µM (inactive)
[10]
  GI50: > 100 µM (inactive)
[11]
  GI50: > 100 µM (inactive)
[12]
  GI50: > 100 µM (inactive)
[13]
  GI50: > 100 µM (inactive)
[14]
  GI50: > 100 µM (inactive)
[15]
  GI50: > 100 µM (inactive)
[16]
  GI50: > 100 µM (inactive)
[17]
  GI50: > 100 µM (inactive)
[18]
  GI50: 0.0113 µM (active)
[19]
  GI50: > 100 µM (inactive)
[20]
  GI50: > 100 µM (inactive)
[21]
  GI50: > 100 µM (inactive)
[22]
  GI50: > 100 µM (inactive)
[23]
  GI50: > 100 µM (inactive)
[24]
  GI50: > 100 µM (inactive)
[25]
  GI50: > 100 µM (inactive)
[26]
  GI50: > 100 µM (inactive)
[27]
  GI50: > 100 µM (inactive)
[28]
  GI50: > 100 µM (inactive)
[55]
  GI50: > 100 µM (inactive)
[29]
  GI50: > 100 µM (inactive)
[30]
  GI50: > 100 µM (inactive)
[56]
  GI50: > 100 µM (inactive)
[32]
  GI50: > 100 µM (inactive)
[33]
  GI50: > 100 µM (inactive)
[34]
  GI50: > 100 µM (inactive)
[35]
  GI50: > 100 µM (inactive)
[36]
  GI50: > 100 µM (inactive)
[37]
  GI50: > 100 µM (inactive)
[38]
  GI50: > 100 µM (inactive)
[39]
  GI50: > 100 µM (inactive)
[57]
  GI50: > 100 µM (inactive)
[40]
  GI50: > 100 µM (inactive)
[58]
  GI50: > 100 µM (inactive)
[41]
  GI50: > 100 µM (inactive)
[42]
  GI50: > 100 µM (inactive)
[43]
  GI50: > 100 µM (inactive)
[44]
  GI50: > 100 µM (inactive)
[45]
  GI50: > 100 µM (inactive)
[47]
  GI50: > 100 µM (inactive)
[48]
  GI50: > 100 µM (inactive)
[49]
  GI50: > 100 µM (inactive)
[50]
  GI50: > 100 µM (inactive)
[51]
  GI50: > 100 µM (inactive)
[59]
  GI50: > 100 µM (inactive)
[52]
  GI50: > 100 µM (inactive)
[53]
  GI50: > 100 µM (inactive)
[54]
  GI50: > 100 µM (inactive)

## CC(=O)NC1C(O)CC(OCCCSCCN)(C(=O)O)OC1C(O)C(O)CO (stereo unspecified)
[2]
  GI50: > 100 µM (inactive)
[3]
  GI50: > 100 µM
[4]
  GI50: > 100 µM (inactive)
[5]
  GI50: > 100 µM (inactive)
[7]
  GI50: > 100 µM (inactive)
[9]
  GI50: > 100 µM (inactive)
[10]
  GI50: > 100 µM (inactive)
[11]
  GI50: > 100 µM (inactive)
[12]
  GI50: > 100 µM (inactive)
[13]
  GI50: > 100 µM (inactive)
[14]
  GI50: > 100 µM (inactive)
[15]
  GI50: > 100 µM (inactive)
[17]
  GI50: > 100 µM (inactive)
[18]
  GI50: > 100 µM (inactive)
[19]
  GI50: > 100 µM (inactive)
[20]
  GI50: > 100 µM (inactive)
[21]
  GI50: > 100 µM (inactive)
[22]
  GI50: > 100 µM (inactive)
[23]
  GI50: > 100 µM (inactive)
[25]
  GI50: > 100 µM (inactive)
[26]
  GI50: > 100 µM (inactive)
[27]
  GI50: > 100 µM (inactive)
[28]
  GI50: > 100 µM (inactive)
[55]
  GI50: > 100 µM (inactive)
[29]
  GI50: > 100 µM (inactive)
[30]
  GI50: > 100 µM (inactive)
[31]
  GI50: > 100 µM (inactive)
[34]
  GI50: > 100 µM (inactive)
[35]
  GI50: > 100 µM (inactive)
[36]
  GI50: > 100 µM (inactive)
[37]
  GI50: > 100 µM (inactive)
[38]
  GI50: > 100 µM (inactive)
[39]
  GI50: > 100 µM (inactive)
[57]
  GI50: > 100 µM (inactive)
[40]
  GI50: > 100 µM (inactive)
[58]
  GI50: > 100 µM (inactive)
[41]
  GI50: > 100 µM (inactive)
[43]
  GI50: > 100 µM (inactive)
[44]
  GI50: > 100 µM (inactive)
[45]
  GI50: > 100 µM (inactive)
[46]
  GI50: > 100 µM (inactive)
[47]
  GI50: > 100 µM (inactive)
[48]
  GI50: > 100 µM (inactive)
[49]
  GI50: > 100 µM (inactive)
[50]
  GI50: > 100 µM (inactive)
[51]
  GI50: > 100 µM (inactive)
[59]
  GI50: > 100 µM (inactive)
[52]
  GI50: > 100 µM (inactive)
[53]
  GI50: > 100 µM (inactive)
[54]
  GI50: > 100 µM (inactive)
